“And” between values parts separate entries of the source, which are not always exact repeats. Equal entries are not always repeated. After the bases stand the sugars from the 5' end (letter, count) and the backbone: PS all phosphorothioate, else s phosphorothioate and o phosphodiester by linkage. Methylation of C is not given here. e = 2'-O-(2-methoxyethyl) (MOE); k = constrained ethyl (cEt); d = 2'-deoxy (DNA)

For the series, the target named is IRF4. Conditions: ASO.

Consider CAGCAAGTGTCTTCCA (sugars k3 d10 k3, PS), for which, where the note is “SK-MEL-28, 4 µM”, the target mRNA inhibition stood at 64%. As for TATAATTGGCACGAGG (sugars k3 d10 k3, PS), the target mRNA inhibition (SK-MEL-28, 4 µM) was determined as 41%. On to CTCGAGGCCAACGACT (sugars k3 d10 k3, PS), for which the target mRNA inhibition (SK-MEL-28, 4 µM) came out at 1%. Still for that read-out and setting: to AGCTTGCAGGTCTGGT (sugars k3 d10 k3, PS) belongs 53%. Consider “ACGGAAGTTTACACTG (sugars kkdddddddddkdkdk, PS)”, for which, for the setting “MM.1R, 1 µM”, the target mRNA inhibition is -2%.

On to “CAAGTGTCTAAAGTCC (sugars kddddddddddkekek, PS)”, for which the target mRNA inhibition (MM.1R, 1 µM) is 7% and 12%.

For the sequence “GGTTGGCTGGTCTTTG (sugars kkddddddddddkeke, PS)”, the target mRNA inhibition was 18% (MM.1R, 0.0625 µM); 33% (MM.1R, 0.25 µM); 76% and 60% (MM.1R, 1 µM); 72% (MM.1R, 4 µM). With “ATGTTAGCCAATTCCT (sugars kkddddddddddkeke, PS)”, the target mRNA inhibition (MM.1R, 1 µM) is 20% and 15%. In the case of AGTGCAGGAGAGGCTG (sugars k3 d10 k3, PS), the target mRNA inhibition (SK-MEL-28, 4 µM) worked out at 36%. On the same count and under the same terms, to GTTGACAAATAAGGTA (sugars k3 d10 k3, PS) belongs 60%; to GTCTACTTGAGTCTGT (sugars k3 d10 k3, PS), 51%; to CTACAAAGAGCACTGC (sugars k3 d10 k3, PS), 53%. The same measure, in the same setting: to AGTGCCCAAGCCTTGA (sugars k3 d10 k3, PS) belongs 48%. On to GCCAACTTATAGCACT (sugars k3 d10 k3, PS), for which the target mRNA inhibition runs as follows: (MM.1R, 0.0625 µM) 17%; (MM.1R, 0.25 µM) -17%; (MM.1R, 4 µM) 8%. As to GGTTTATTAGCTTTCT (sugars k3 d10 k3, PS), the target mRNA inhibition (SK-MEL-28, 4 µM) is -1%. Turning to TATTTGTTTGCAAGCT (sugars k3 d10 k3, PS), the target mRNA inhibition (MM.1R, 1 µM) worked out at 30%. Consider CACCAGGAAACCGCTG (sugars k3 d10 k3, PS), for which the target mRNA inhibition (SK-MEL-28, 4 µM) was 15%.

Take GGTCAATTTTCACAGT (sugars k3 d10 k3, PS): for the setting “SK-MEL-28, 4 µM”, the target mRNA inhibition was found to be 64%. On to “CGTGTGCTTGCCAAGC (sugars kddddddddddkekek, PS)”, for which the target mRNA inhibition (MM.1R, 1 µM) was 30% and 32%.

For the sequence CAAAGAGGGTCACAGG (sugars k3 d10 k3, PS), the target mRNA inhibition (SK-MEL-28, 4 µM) is 63%. On to TAATTCTCCTATGCTG (sugars k3 d10 k3, PS), for which the target mRNA inhibition (MM.1R, 1 µM) worked out at 3%. Still for that read-out and setting: to “GAAGTTTACACTGGAT (sugars kkkddddddddkekek, PS)” belongs 52%. For the sequence GGTAACAATACTGTAA (sugars k3 d10 k3, PS), under “SK-MEL-28, 4 µM”, the target mRNA inhibition is 59%. On to “CGTGTGCTTGCCAAGC (sugars kkdddddddddekeke, PS)”, for which the target mRNA inhibition (MM.1R, 1 µM) is 47% and 36%. In the case of “AAGCTTGATAAAGGCT (sugars k3 d9 k3 e1, PS)”, the target mRNA inhibition (MM.1R, 1 µM) was found to be 5%. Turning to GACAAGTGCTAGGATT (sugars k3 d10 k3, PS), the target mRNA inhibition (SK-MEL-28, 4 µM) came out at 61%. Still for that read-out and setting: to TTCCGTAGTCAGCTCC (sugars k3 d10 k3, PS) belongs 68%; to CTTGTCTCCCCCAGAG (sugars k3 d10 k3, PS), 3%.

With “AAGCATTTTATCATCC (sugars k2 d9 e3 k2, PS)”, for the setting “MM.1R, 1 µM”, the target mRNA inhibition amounted to 21%.

As to CATGGTATTTTTCCGT (sugars k3 d10 k3, PS), the target mRNA inhibition was 4% (MM.1R, 0.0625 µM); 36% (MM.1R, 0.25 µM); 38% and 48% (MM.1R, 1 µM); 66% (MM.1R, 4 µM).

As for “ACGGAAGTTTACACTG (sugars kkdddddddddekeke, PS)”, the target mRNA inhibition (MM.1R, 1 µM) is 8%. For CAGTCTCAAAAACGGG (sugars k3 d10 k3, PS), the target mRNA inhibition (SK-MEL-28, 4 µM) is 51%. Take “GTGATGTCAGGTTTTC (sugars k3 d9 k3 e1, PS)”: the target mRNA inhibition runs as follows: (MM.1R, 0.074 µM) 16%; (MM.1R, 0.222 µM) 41%; (MM.1R, 0.666 µM) 66%; (MM.1R, 1 µM) 71%; (MM.1R, 2 µM) 85%. For the sequence “GTGTGCTTGCCAAGCC (sugars k2 d9 e3 k2, PS)”, the target mRNA inhibition (MM.1R, 1 µM) was 75% and 62%. As to ATATGACGACTTAAGC (sugars k3 d10 k3, PS), the target mRNA inhibition (SK-MEL-28, 4 µM) turned out to be 38%. On to CTAATCCACAATCAGC (sugars k3 d10 k3, PS), for which the target mRNA inhibition (SK-MEL-28, 4 µM) amounted to 45%. Still for that read-out and setting: the figure for GGTGAAACTGAGAGTG (sugars k3 d10 k3, PS) is 8%; for ACTGAGTGTGCAGTTC (sugars k3 d10 k3, PS) it is 36%; for GGGAGATCCGGCAGCC (sugars k4 d8 k4, PS) it is -13%. Turning to CTTGGCTGTGGGATGC (sugars k3 d10 k3, PS), the target mRNA inhibition (MM.1R, 1 µM) is 21%. In the case of CTGTATGGAACCCCAA (sugars k3 d10 k3, PS), the target mRNA inhibition (MM.1R, 1 µM) is 3%. With ACTCATAGGTGTACAC (sugars k3 d10 k3, PS), the target mRNA inhibition (SK-MEL-28, 4 µM) came out at 45%. With CCACATACCTGAAACG (sugars k3 d10 k3, PS), where the note is “MM.1R, 1 µM”, the target mRNA inhibition was -9%.

As for “CTTGATAAAGGCTGAA (sugars kkkdddddddddkeke, PS)”, the target mRNA inhibition (MM.1R, 1 µM) turned out to be 24%. Regarding ACACAGCCTCGCCCTC (sugars k3 d10 k3, PS), the target mRNA inhibition (SK-MEL-28, 4 µM) came out at 20%.

With AACCATGTTCCTGAAG (sugars k3 d10 k3, PS), the target mRNA inhibition (SK-MEL-28, 4 µM) stood at 41%. Same read-out and setting: to AAAGACAAGTGCCCAT (sugars k3 d10 k3, PS) belongs 24%.

CAAACCTTAAGCTATT (sugars k3 d10 k3, PS): the target mRNA inhibition is -13% (MM.1R, 0.0625 µM); -5% (MM.1R, 0.25 µM); 6% (MM.1R, 4 µM). Regarding TGGTAACTGTATGGAA (sugars k3 d10 k3, PS), where the note is “SK-MEL-28, 4 µM”, the target mRNA inhibition is 48%. With GAAGTTTACACTGGAT (sugars k3 d10 k3, PS), for the setting “SK-MEL-28, 4 µM”, the target mRNA inhibition was found to be 65%. For the sequence “GAAGTTTACACTGGAT (sugars k3 d9 k3 e1, PS)”, under “MM.1R, 1 µM”, the target mRNA inhibition stood at 45%.

For ACCCAATAGTCTAGCT (sugars k3 d10 k3, PS), under “SK-MEL-28, 4 µM”, the target mRNA inhibition is 25%. Same read-out and setting: to CTAATCTACAACAAAT (sugars k3 d10 k3, PS) belongs 23%.

For the sequence GCTGAAACGGTCAGCA (sugars k3 d10 k3, PS), the target mRNA inhibition (MM.1R, 1 µM) was 8%. For TCCACTTCTGAATTCC (sugars k3 d10 k3, PS), the target mRNA inhibition (SK-MEL-28, 4 µM) is 19%. On the same count and under the same terms, the figure for GGAGAGCGGAGGCGGG (sugars k3 d10 k3, PS) is 21%; for TTATATATGACGACTT (sugars k3 d10 k3, PS) it is 35%; for TGCAAGTATGTAGCAA (sugars k3 d10 k3, PS) it is 3%. Consider TATAACTTCTCCTGTG (sugars k3 d10 k3, PS), for which the target mRNA inhibition (MM.1R, 1 µM) was determined as 7%. For CTACATTTCTTATGCA (sugars k3 d10 k3, PS), the target mRNA inhibition (SK-MEL-28, 4 µM) amounted to 39%. “ACTTTTAGAGAGGAGA (sugars kkdddddddddekeke, PS)”: under “MM.1R, 1 µM”, the target mRNA inhibition was determined as 52%. GCATAGAGCCCGTCGG (sugars k3 d10 k3, PS): the target mRNA inhibition (SK-MEL-28, 4 µM) was 50%. The same measure, in the same setting: to AGTGATGAGATATTCC (sugars k3 d10 k3, PS) belongs 59%; to ACAGGCACGGCTTCAG (sugars k3 d10 k3, PS), 64%. For TGTAACTCTGAGTAGA (sugars k3 d10 k3, PS), the target mRNA inhibition (SK-MEL-28, 4 µM) was determined as 43%. In the case of CCGGACCCCGGAGCAG (sugars k3 d10 k3, PS), the target mRNA inhibition (SK-MEL-28, 4 µM) is -24%.

For ATAACGGTGTTTCAGA (sugars k3 d10 k3, PS), the target mRNA inhibition (SK-MEL-28, 4 µM) stood at 47%. Same read-out and setting: to AGCCAAGAGGTGCGAG (sugars k3 d10 k3, PS) belongs 38%. On to “AGTGTCTAAAGTCCCA (sugars kkdddddddddekeke, PS)”, for which the target mRNA inhibition (MM.1R, 1 µM) is 18% and 19%. AATCTTCTGCTGATCC (sugars k3 d10 k3, PS): where the note is “SK-MEL-28, 4 µM”, the target mRNA inhibition turned out to be 72%. As to “CTATAGTGTTCCAGGA (sugars kkdddddddddekeke, PS)”, the target mRNA inhibition (MM.1R, 1 µM) was 48%. For the sequence CTGAGATAGGAAGCAC (sugars k3 d10 k3, PS), for the setting “SK-MEL-28, 4 µM”, the target mRNA inhibition was found to be 26%. On the same count and under the same terms, to ACCATTCAGACAGATG (sugars k3 d10 k3, PS) belongs 30%; to TACTTGGACAGAAGGG (sugars k3 d10 k3, PS), 62%. As for “AGTGATGTCAGGTTTT (sugars k2 d9 e3 k2, PS)”, for the setting “MM.1R, 1 µM”, the target mRNA inhibition stood at 25%. In the case of “AGCATTTTATCATCCG (sugars kkdddddddddekeke, PS)”, the target mRNA inhibition (MM.1R, 1 µM) worked out at 46%. For the sequence GAGCCTGGGACTCAGG (sugars k4 d8 k4, PS), where the note is “SK-MEL-28, 4 µM”, the target mRNA inhibition is 19%. For CCAGCTTCGGTCGAGG (sugars k3 d10 k3, PS), the target mRNA inhibition (MM.1R, 1 µM) is -5%. Regarding CCAATACATATCCATG (sugars k3 d10 k3, PS), under “SK-MEL-28, 4 µM”, the target mRNA inhibition amounted to 60%.

AGATATCCTGCAACTG (sugars k3 d10 k3, PS): the target mRNA inhibition (SK-MEL-28, 4 µM) was -9%. The same measure, in the same setting: to TAAATGAGTCGGTCAC (sugars k3 d10 k3, PS) belongs 76% and 65%. For the sequence AAGTGTCTAAAGTCCC (sugars k3 d10 k3, PS), the target mRNA inhibition (MM.1R, 1 µM) is 50% and 41%. On to TGTCACTATGCCTGAA (sugars k3 d10 k3, PS), for which the target mRNA inhibition (SK-MEL-28, 4 µM) came to 27%.

Take GTCTTAAGGGTTCAAG (sugars k3 d10 k3, PS): where the note is “SK-MEL-28, 4 µM”, the target mRNA inhibition is 49%. On to “CTGTTACCGATGCTTC (sugars kkddddddddddkeke, PS)”, for which the target mRNA inhibition (MM.1R, 1 µM) is 43% and 37%. Take CTCTATAGTGTTCCAG (sugars k3 d10 k3, PS): the target mRNA inhibition (SK-MEL-28, 4 µM) stood at 66%.

On to TTCAGCCACGAGGCAC (sugars k3 d10 k3, PS), for which the target mRNA inhibition (SK-MEL-28, 4 µM) amounted to 5%. Take GACGAAAACAGCCGCC (sugars k3 d10 k3, PS): the target mRNA inhibition (SK-MEL-28, 4 µM) worked out at 62%. On to TAGGTAAGATCTCCAT (sugars k3 d10 k3, PS), for which the target mRNA inhibition (MM.1R, 1 µM) is 35% and 33%.

(Values after the OligoGym collection.)
